# Experimental data: publication PMC5454865 (International Journal of Molecular Sciences, 2017)
# Several values for one entry are separate records, joined by “and”; a condition that tells them apart may be missing. Identical values can stand only once. Like-named read-outs stand apart in the source and are kept apart here.
# What was measured:
# CYP2C9 [1] = molecular target: T1, CYP2C9 (Homo sapiens, UniProt P11712); set-up: incubated with human liver microsomes (0.1 mg/mL); tissue Corning Life Sciences 452161; host or cells: pooled human liver microsomes; conditions: cited from earlier work
# T1 sequence (P11712 whole entry): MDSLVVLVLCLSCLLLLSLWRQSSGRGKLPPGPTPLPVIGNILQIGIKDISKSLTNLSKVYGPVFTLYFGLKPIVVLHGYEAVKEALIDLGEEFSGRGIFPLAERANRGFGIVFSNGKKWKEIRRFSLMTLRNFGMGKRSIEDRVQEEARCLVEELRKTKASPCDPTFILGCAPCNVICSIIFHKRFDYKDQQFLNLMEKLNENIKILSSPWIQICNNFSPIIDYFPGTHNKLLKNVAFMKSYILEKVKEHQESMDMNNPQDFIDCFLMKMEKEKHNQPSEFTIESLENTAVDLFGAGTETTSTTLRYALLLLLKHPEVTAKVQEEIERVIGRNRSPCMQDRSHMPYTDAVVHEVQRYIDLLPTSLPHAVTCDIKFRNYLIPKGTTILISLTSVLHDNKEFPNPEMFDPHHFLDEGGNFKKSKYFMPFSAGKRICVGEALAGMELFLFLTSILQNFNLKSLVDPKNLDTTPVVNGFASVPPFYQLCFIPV
# CYP3A4 [2] = molecular target: T2, CYP3A4 (Homo sapiens, UniProt P08684); conditions: human liver microsomes; cited from earlier work
# T2 sequence (P08684 whole entry): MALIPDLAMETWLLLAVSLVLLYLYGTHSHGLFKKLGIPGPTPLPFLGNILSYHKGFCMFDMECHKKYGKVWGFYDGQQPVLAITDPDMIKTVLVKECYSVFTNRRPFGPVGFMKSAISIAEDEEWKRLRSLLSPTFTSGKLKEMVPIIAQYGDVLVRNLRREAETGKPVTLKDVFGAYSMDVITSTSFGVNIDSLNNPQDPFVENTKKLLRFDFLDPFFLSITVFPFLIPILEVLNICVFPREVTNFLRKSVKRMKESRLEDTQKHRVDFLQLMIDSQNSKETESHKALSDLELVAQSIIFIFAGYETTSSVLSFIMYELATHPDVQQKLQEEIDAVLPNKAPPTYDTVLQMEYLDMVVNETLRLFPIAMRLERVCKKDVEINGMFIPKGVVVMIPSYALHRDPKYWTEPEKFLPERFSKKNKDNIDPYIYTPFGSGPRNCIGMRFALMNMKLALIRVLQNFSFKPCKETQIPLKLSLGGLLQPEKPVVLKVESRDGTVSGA
# CYP2B6 = molecular target: T3, CYP2B6 (Homo sapiens, UniProt P20813); assay: CYP2B6-catalyzed bupropion hydroxylation, LC-MS/MS; format: in vitro ADME; conditions: human liver microsomes
# T3 construct: pooled human liver microsomes (0.2 mg/mL), 50 μM bupropion; tissue Corning Life Sciences 452161; host or cells: pooled human liver microsomes
# T3 sequence (P20813 1-491): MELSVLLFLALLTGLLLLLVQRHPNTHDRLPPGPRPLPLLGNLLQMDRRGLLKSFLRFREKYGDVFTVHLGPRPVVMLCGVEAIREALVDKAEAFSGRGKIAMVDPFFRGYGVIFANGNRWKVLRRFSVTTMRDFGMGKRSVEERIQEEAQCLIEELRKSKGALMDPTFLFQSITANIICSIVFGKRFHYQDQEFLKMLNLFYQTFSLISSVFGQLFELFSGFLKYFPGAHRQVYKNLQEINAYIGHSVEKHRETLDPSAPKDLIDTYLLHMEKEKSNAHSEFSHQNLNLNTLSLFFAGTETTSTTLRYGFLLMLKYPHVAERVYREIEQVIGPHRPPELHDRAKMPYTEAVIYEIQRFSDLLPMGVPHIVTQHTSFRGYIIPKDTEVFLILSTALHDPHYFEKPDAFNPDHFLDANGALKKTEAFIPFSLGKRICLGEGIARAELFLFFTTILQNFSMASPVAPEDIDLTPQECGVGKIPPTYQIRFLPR
# Protocol: After 3 min pre-incubation at 37 °C, the reaction mixtures were incubated with the addition of NADPH in a shaking water bath for 15 min at 37 °C. The reaction was stopped by adding 100 μL of ice-cold d9-1′-hydroxybufuralol (internal standard) in methanol. The mixtures were centrifuged at 13,000× g for 4 min at 4 °C. All incubations were performed in triplicate, and the average values were used for the subsequent calculations. […] Then, the reaction mixtures were incubated with the addition of NADPH and bupropion for 15 min at 37 °C. The control reaction was performed by the addition of acetonitrile instead of the test compounds. Hydroxybupropion concentrations were quantified using the LC-MS/MS method described above; the SRM transitions for hydroxybupropion and d9-1′-hydroxybufuralol were 256.1 > 238.0 and 287.2 > 187.0, respectively.
# The IC50 values were calculated using SigmaPlot ver.
# [3] = tested on: eight CYP enzymes (CYPs 1A2, 2A6, 2B6, 2C8, 2C9, 2C19, 2D6, and 3A4); assay: IC50 shift after 30-min pre-incubation with NADPH, panel of eight CYP enzymes; conditions: human liver microsomes
# Protocol: (§1) After 3 min pre-incubation at 37 °C, the reaction mixtures were incubated for 15 min at 37 °C with the addition of NADPH in a shaking water bath. The reaction was stopped by adding 100 μL of ice-cold methanol containing internal standards (d9-1′-hydroxybufuralol for 1′-hydroxybufuralol, 4′-hydroxydiclofenac, 7-hydroxycoumarin, 1′-hydroxymidazolam, and 4′-hydroxymephenytoin; ^13C2, ^15N-acetaminophen for acetaminophen and N-desethylamodiaquine). The mixtures were centrifuged at 13,000× g for 4 min at 4 °C. All assays were performed in triplicate and the average values were used for the subsequent calculations. […] Then, the reaction mixtures were incubated with addition of the seven-CYP probe substrate cocktail for 15 min at 37 °C. The control reaction was performed by adding acetonitrile instead of the test compounds.
# After 3 min pre-incubation at 37 °C, the reaction mixtures were incubated with the addition of NADPH in a shaking water bath for 15 min at 37 °C. The reaction was stopped by adding 100 μL of ice-cold d9-1′-hydroxybufuralol (internal standard) in methanol. The mixtures were centrifuged at 13,000× g for 4 min at 4 °C. All incubations were performed in triplicate, and the average values were used for the subsequent calculations. […] Then, the reaction mixtures were incubated with the addition of NADPH and bupropion for 15 min at 37 °C. […]
# CYP2A6 = molecular target: T4, CYP2A6 (Homo sapiens, UniProt P11509); assay: CYP2A6-catalyzed coumarin 7-hydroxylation, substrate cocktail, LC-MS/MS; conditions: human liver microsomes
# T4 sequence (P11509 1-494): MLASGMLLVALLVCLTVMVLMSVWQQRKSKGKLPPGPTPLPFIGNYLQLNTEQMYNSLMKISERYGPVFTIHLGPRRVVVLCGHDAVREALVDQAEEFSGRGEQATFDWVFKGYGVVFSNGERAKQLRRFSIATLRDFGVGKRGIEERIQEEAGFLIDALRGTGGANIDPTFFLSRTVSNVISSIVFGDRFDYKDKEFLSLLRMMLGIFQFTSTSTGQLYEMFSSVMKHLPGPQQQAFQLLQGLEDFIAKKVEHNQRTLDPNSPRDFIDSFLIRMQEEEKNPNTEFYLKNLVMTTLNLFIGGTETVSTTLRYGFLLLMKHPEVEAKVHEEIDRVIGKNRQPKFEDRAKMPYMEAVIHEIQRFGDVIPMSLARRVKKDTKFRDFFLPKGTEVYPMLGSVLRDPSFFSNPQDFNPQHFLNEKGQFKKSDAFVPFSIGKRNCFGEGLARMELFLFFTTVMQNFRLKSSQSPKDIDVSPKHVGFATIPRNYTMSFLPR
# Protocol: as §1
# (§2) Seven metabolites were simultaneously determined using a tandem mass spectrometer (TSQ Quantum Access; Thermo Scientific, San Jose, CA, USA) equipped with an electrospray ionization (ESI) source coupled to a NANOSPACE SI-2 LC system (Shiseido, Tokyo, Japan). The column and autosampler temperatures were 50 and 6 °C, respectively. The ESI source settings for the ionization of metabolites were as follows: polarity, positive ion mode; capillary voltage, 4200 V; capillary temperature, 330 °C; vaporizer temperature, 350 °C; auxiliary gas pressure, 15 psi; and sheath gas pressure, 35 psi. […] Analytical data were processed using Xcalibur™ software (Thermo Scientific, San Jose, CA, USA).
# (§3) The IC50 values were calculated using SigmaPlot ver. 11.0 (Systat Software, Inc., San Jose, CA, USA).
# CYP1A2 [4] = molecular target: T5, CYP1A2 (Homo sapiens, UniProt P05177); conditions: microsomes
# T5 sequence (P05177 1-516): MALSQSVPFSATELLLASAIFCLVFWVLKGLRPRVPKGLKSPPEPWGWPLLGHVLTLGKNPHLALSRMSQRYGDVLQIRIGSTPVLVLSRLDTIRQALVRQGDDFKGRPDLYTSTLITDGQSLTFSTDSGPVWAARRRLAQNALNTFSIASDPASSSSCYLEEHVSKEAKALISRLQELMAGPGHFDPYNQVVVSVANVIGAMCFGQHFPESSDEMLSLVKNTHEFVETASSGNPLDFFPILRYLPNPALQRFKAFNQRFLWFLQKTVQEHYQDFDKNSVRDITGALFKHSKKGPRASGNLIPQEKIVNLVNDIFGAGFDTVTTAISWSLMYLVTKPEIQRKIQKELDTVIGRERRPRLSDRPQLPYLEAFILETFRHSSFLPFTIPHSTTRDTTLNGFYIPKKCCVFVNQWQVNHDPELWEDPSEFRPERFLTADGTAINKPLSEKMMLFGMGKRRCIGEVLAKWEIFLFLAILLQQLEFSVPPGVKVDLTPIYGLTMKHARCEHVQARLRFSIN
# Protocol: as §1, §2, §3
# CYP2C9 [5] = molecular target: T1, CYP2C9; conditions: microsomes
# Protocol: as §1, §2, §3
# CYP3A4 [6] = molecular target: T2, CYP3A4; conditions: microsomes
# Protocol: as §1, §2
# (§4) The IC50 values were calculated using SigmaPlot ver. 11.0 (Systat Software, Inc., San Jose, CA, USA). Ki, kinact, and the inhibition mode were determined using Enzyme Kinetics ver. 1.1 (Systat Software, Inc.).
# CYP2D6 [7] = molecular target: T6, CYP2D6 (Homo sapiens, UniProt P10635); conditions: microsomes
# T6 sequence (P10635 whole entry): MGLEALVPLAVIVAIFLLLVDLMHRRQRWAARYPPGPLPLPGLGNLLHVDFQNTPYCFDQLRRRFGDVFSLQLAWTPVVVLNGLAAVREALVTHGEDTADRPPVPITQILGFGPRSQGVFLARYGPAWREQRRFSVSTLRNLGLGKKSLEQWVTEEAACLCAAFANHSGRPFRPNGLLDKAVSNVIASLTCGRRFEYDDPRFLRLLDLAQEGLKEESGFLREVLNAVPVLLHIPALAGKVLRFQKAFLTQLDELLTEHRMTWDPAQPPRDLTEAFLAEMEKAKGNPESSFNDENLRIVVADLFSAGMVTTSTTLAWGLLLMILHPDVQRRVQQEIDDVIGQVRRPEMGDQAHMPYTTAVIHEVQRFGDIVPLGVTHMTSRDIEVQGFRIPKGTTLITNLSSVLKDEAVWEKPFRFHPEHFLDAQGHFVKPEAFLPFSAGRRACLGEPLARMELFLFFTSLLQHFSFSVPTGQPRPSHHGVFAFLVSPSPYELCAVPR
# Protocol: as §1, §2, §4
# CYP2C8 [8] = molecular target: T7, CYP2C8 (Homo sapiens, UniProt P10632)
# T7 sequence (P10632 1-490): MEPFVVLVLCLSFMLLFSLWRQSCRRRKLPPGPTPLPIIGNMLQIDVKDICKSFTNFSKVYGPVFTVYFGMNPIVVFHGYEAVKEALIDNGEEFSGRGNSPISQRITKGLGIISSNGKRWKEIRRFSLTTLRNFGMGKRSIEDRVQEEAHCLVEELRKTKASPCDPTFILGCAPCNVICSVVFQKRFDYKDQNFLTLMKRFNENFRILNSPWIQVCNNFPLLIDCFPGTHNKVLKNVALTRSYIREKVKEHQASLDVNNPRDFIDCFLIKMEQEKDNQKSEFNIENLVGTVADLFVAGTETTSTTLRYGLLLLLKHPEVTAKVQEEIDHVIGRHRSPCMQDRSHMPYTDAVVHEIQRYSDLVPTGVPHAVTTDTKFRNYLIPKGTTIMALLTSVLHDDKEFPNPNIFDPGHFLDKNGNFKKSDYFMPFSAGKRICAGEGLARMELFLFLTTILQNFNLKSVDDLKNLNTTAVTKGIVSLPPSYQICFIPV
# Protocol: as §1, §2, §3
# CYP2C19 [9] = molecular target: T8, CYP2C19 (Homo sapiens, UniProt P33261)
# T8 sequence (P33261 whole entry): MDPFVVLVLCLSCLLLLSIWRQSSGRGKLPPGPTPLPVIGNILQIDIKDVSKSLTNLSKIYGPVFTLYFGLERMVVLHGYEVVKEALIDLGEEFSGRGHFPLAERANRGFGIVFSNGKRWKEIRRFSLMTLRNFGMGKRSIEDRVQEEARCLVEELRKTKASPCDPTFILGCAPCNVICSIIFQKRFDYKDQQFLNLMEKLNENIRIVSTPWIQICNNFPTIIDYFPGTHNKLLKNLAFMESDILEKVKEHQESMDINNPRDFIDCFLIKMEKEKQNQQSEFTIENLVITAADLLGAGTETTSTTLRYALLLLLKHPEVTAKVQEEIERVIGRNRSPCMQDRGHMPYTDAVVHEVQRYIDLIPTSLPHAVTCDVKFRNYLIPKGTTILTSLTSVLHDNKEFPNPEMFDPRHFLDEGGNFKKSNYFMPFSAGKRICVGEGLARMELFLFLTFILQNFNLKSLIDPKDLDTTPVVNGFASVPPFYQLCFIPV
# Protocol: as §1, §2, §3
# CYP2C8 [10] = molecular target: T7, CYP2C8; assay: CYP2C8-catalyzed amodiaquine N-deethylation, substrate cocktail, LC-MS/MS; conditions: human liver microsomes
# Protocol: as §1, §2, §3
# CYP2C19 [11] = molecular target: T8, CYP2C19; assay: CYP2C19-catalyzed [S]-mephenytoin 4′-hydroxylation, substrate cocktail, LC-MS/MS; conditions: human liver microsomes
# Protocol: as §1, §2, §3
# CYP3A4 [12] = molecular target: T2, CYP3A4; assay: CYP3A4-catalyzed midazolam 1′-hydroxylation, substrate cocktail, LC-MS/MS; conditions: human liver microsomes
# Protocol: as §1, §2, §4
# CYP1A2 [13] = molecular target: T5, CYP1A2; assay: CYP1A2-catalyzed phenacetin O-deethylation, substrate cocktail, LC-MS/MS; conditions: human liver microsomes
# Protocol: as §1, §2, §3
# CYP2D6 [14] = molecular target: T6, CYP2D6; assay: CYP2D6-catalyzed bufuralol 1′-hydroxylation, substrate cocktail, LC-MS/MS; conditions: human liver microsomes
# Protocol: as §1, §2, §4
# CYP2C9 [15] = molecular target: T1, CYP2C9; assay: CYP2C9-catalyzed diclofenac 4′-hydroxylation, substrate cocktail, LC-MS/MS; conditions: human liver microsomes
# Protocol: as §1, §2, §3
# CYP2C19 [16] = molecular target: T8, CYP2C19; conditions: microsomes
# Protocol: as §1, §2, §3
compound,measurement,setting,value
COc1cc([C@H]2OC[C@H]3[C@@H]2CO[C@@H]3c2ccc3c(c2)OCO3)cc(OC)c1OC [aschantin],"kinact, mechanism-based inhibition of CYP2C9",CYP2C9 [1],0.044 min⁻¹
same,Ki,"CYP2C9 [1]; read-out: Ki, mechanism-based inhibition of CYP2C9",3.7 µM
same,kinact/Ki against CYP3A4,CYP3A4 [2],8.2e+07 M⁻¹ s⁻¹
CC(C)=CCC/C(C)=C/COc1c2ccoc2cc2oc(=O)ccc12 [bergamottin],kinact/Ki against CYP3A4,CYP3A4 [2],3.3e+07 M⁻¹ s⁻¹
CC[C@H]1OC(=O)[C@H](C)[C@@H](O[C@H]2C[C@@](C)(OC)[C@@H](O)[C@H](C)O2)[C@H](C)[C@@H](O[C@@H]2O[C@H](C)C[C@H](N(C)C)[C@H]2O)[C@](C)(OC)C[C@@H](C)C(=O)[C@H](C)[C@@H](O)[C@]1(C)O [clarithromycin],kinact/Ki against CYP3A4,CYP3A4 [2],1.7e+07 to 2.17e+08 M⁻¹ s⁻¹
COc1cc([C@@H]2c3cc4c(cc3C[C@H]3COC(=O)[C@@H]32)OCO4)cc(OC)c1OC [deoxypodophyllotoxin],Ki,"CYP2C9 [1]; read-out: Ki, CYP2C9 activity",3.5 µM
COc1cc([C@H]2OC[C@H]3[C@@H]2CO[C@@H]3c2cc(OC)c(OC)c(OC)c2)cc(OC)c1OC [dimethyllirioresinol],Inhibition of CYP2B6 activity at 100 μM,CYP2B6,without inhibition
same,IC50 value shift of eight CYP enzymes after 30-min pre-incubation,[3],did not cause the IC50 value shift
same,Inhibition of CYP2A6 activity at 100 μM,CYP2A6,without inhibition
same,Inhibition of CYP1A2 activity at 100 μM,CYP1A2 [4],without inhibition
same,Inhibition of CYP2C9 activity at 100 μM,CYP2C9 [5],without inhibition
same,Inhibition of CYP3A4 activity at 100 μM,CYP3A4 [6],without inhibition
same,Inhibition of CYP2D6 activity at 100 μM,CYP2D6 [7],without inhibition
same,IC50,CYP2C8 [8],85 µM and 67.2 µM
same,IC50,CYP2C19 [9],55.1 µM and 49.8 µM
COc1ccc([C@@H]2OC[C@H]3[C@@H]2CO[C@@H]3c2cc(OC)c(OC)c(OC)c2)cc1OC [epimagnolin A],Inhibition of CYP2C8 activity at 100 μM,CYP2C8 [10],negligibly inhibited
same,Inhibition of CYP2C19 activity at 100 μM,CYP2C19 [11],negligibly inhibited
same,Inhibition of CYP2B6 activity at 100 μM,CYP2B6,negligibly inhibited
same,Inhibition of CYP2A6 activity at 100 μM,CYP2A6,negligibly inhibited
same,Inhibition of CYP3A4 activity at 100 μM,CYP3A4 [12],negligibly inhibited
same,Inhibition of CYP1A2 activity at 100 μM,CYP1A2 [13],negligibly inhibited
same,Inhibition of CYP2D6 activity at 100 μM,CYP2D6 [14],negligibly inhibited
same,Inhibition of CYP2C9 activity at 100 μM,CYP2C9 [15],negligibly inhibited
COc1ccc([C@H]2OC[C@H]3[C@@H]2CO[C@@H]3c2ccc(OC)c(OC)c2)cc1OC [eudesmin],Inhibition of CYP2C8 activity at 100 μM,CYP2C8 [10],negligibly inhibited
same,Inhibition of CYP2B6 activity at 100 μM,CYP2B6,negligibly inhibited
same,IC50 value shift of eight CYP enzymes after 30-min pre-incubation,[3],did not cause the IC50 value shift
same,Inhibition of CYP2A6 activity at 100 μM,CYP2A6,negligibly inhibited
same,Inhibition of CYP1A2 activity at 100 μM,CYP1A2 [4],negligibly inhibited
same,Inhibition of CYP2C9 activity at 100 μM,CYP2C9 [5],negligibly inhibited
same,Inhibition of CYP2C19 activity at 100 μM,CYP2C19 [16],negligibly inhibited
same,Inhibition of CYP3A4 activity at 100 μM,CYP3A4 [6],negligibly inhibited
same,Inhibition of CYP2D6 activity at 100 μM,CYP2D6 [7],negligibly inhibited
CNCCC(Oc1ccc(C(F)(F)F)cc1)c1ccccc1 (centres unmarked) [fluoxetine],kinact/Ki against CYP3A4,CYP3A4 [2],5.33e+07 M⁻¹ s⁻¹
COc1ccc([C@H]2OC[C@H]3[C@@H]2CO[C@@H]3c2cc(OC)c(OC)c(OC)c2)cc1OC [magnolin],Inhibition of CYP2C8 activity at 100 μM,CYP2C8 [10],negligibly inhibited
same,Inhibition of CYP2C19 activity at 100 μM,CYP2C19 [11],negligibly inhibited
same,Inhibition of CYP2B6 activity at 100 μM,CYP2B6,negligibly inhibited
same,Inhibition of CYP2A6 activity at 100 μM,CYP2A6,negligibly inhibited
same,Inhibition of CYP3A4 activity at 100 μM,CYP3A4 [12],negligibly inhibited
same,Inhibition of CYP1A2 activity at 100 μM,CYP1A2 [13],negligibly inhibited
same,Inhibition of CYP2D6 activity at 100 μM,CYP2D6 [14],negligibly inhibited
same,Inhibition of CYP2C9 activity at 100 μM,CYP2C9 [15],negligibly inhibited
COc1cc([C@@H]2c3cc4c(cc3[C@H](O)[C@H]3COC(=O)[C@H]23)OCO4)cc(OC)c1OC [podophyllotoxin],Ki,"CYP2C9 [1]; read-out: Ki, CYP2C9 activity",2 µM
same,kinact/Ki against CYP3A4,CYP3A4 [2],2.272e+08 M⁻¹ s⁻¹
O=c1c2ccccc2nc2n1CCc1c-2[nH]c2ccccc12 [rutaecarpine],kinact/Ki against CYP3A4,CYP3A4 [2],5.98e+07 M⁻¹ s⁻¹
